Article PMC7827648 (Molecules, 2021)
Several values for one entry are separate records, joined by “and”; a condition that tells them apart may be missing. Identical values can stand only once. Like-named read-outs stand apart in the source and are kept apart here.

What was measured:
[1] = system: HeLa (adenocarcinoma of the cervix uterus) cells; test: Cytotoxicity, MTT assay, HeLa cells; type: cell-based; details: Homo sapiens, read-out: IC50, 50% inhibition of the cell population growth, 72 h, mean ± SD
Procedure: (§1) The cytotoxicity of the newly synthesized Schiff bases was evaluated in vitro in a panel of cultured tumor cells, assessing cell viability at scalar concentrations of the test compounds (≤500 μM) by MTT (i.e., 3-(4,5-dimethylthiazol-2-yl)-2,5-diphenyltetrazolium bromide) and Alamar Blue assays, using doxorubicin as the positive controls. Most of the compounds were tested against RD (rhabdomyosarcoma), HCT116 (intestinal carcinoma), HeLa (adenocarcinoma of the cervix uterus) and A549 (lung adenocarcinoma) cell lines, whereas five representative compounds of the subsets were tested also against K562 (chronic myelogenous leukemia) tumor cells.
(§2) The experiments were carried out in triplicate.

in vitro = details: human, SH-SY5Y neuroblastoma cells
[2] = system: RD (rhabdomyosarcoma) cells; test: Cytotoxicity, MTT assay, RD cells; type: cell-based; details: Homo sapiens, read-out: IC50, 50% inhibition of the cell population growth, 72 h, mean ± SD
Procedure: as §1, §2

human MAO A = biological target: T1, human MAO A (Homo sapiens, UniProt P21397); test: biochemical; details: for inhibition at 10 µM: read-out: % inhibition hMAO A
T1 construct: host or cells: baculovirus-infected insect cells (microsomes)
T1 sequence (P21397 1-527): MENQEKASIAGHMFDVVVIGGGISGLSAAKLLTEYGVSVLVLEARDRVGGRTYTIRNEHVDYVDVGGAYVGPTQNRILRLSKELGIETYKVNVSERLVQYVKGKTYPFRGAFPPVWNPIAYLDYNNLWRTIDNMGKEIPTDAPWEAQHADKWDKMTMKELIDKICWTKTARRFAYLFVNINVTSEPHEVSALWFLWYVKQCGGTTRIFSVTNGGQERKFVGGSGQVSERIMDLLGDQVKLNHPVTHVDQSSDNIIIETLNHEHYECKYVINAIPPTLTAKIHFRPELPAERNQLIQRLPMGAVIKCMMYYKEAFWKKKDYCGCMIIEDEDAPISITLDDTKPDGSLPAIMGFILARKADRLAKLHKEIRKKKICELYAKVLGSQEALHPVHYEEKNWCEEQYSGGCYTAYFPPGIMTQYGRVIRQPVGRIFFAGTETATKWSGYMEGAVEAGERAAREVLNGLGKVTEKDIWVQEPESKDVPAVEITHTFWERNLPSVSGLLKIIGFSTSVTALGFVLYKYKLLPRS
Procedure: (§3) The inhibition of human recombinant MAO A (250 U/mg) and B (59 U/mg; microsomes from baculovirus-infected insect cells) was evaluated using the reported 96-well plate technique [12]. on a Tecan Infinite M1000 Pro instrument (Cernusco s.N., Italy). […] After addition of the enzyme and 30 min of incubation, NaOH was added and the fluorescence read at the 310/400 excitation/emission wavelength.

[3] = biological target: T2, human butyrylcholinesterase (BChE) (Homo sapiens, UniProt P06276); test: BChE inhibition, Ellman's method; type: biochemical; details: mean ± SD (n = 3), n.i. = no inhibition; for % inhibition hBChE: at 10 μM
T2 construct: BChE from human serum (50 U/mg); from tissue; host or cells: human serum
Procedure: (§4) The ChE inhibition assay was carried out using the Ellman’s spectrophotometric method [23], as applied to the 96-well plate technique [24] on a Tecan Infinite M1000 Pro instrument (Cernusco s.N., Italy).

human MAO B = biological target: T3, human MAO B (Homo sapiens, UniProt P27338); test: biochemical; details: for inhibition at 10 µM: mean ± SD (n = 3), read-out: % inhibition hMAO B
T3 construct: host or cells: baculovirus-infected insect cells (microsomes)
T3 sequence (P27338 1-520): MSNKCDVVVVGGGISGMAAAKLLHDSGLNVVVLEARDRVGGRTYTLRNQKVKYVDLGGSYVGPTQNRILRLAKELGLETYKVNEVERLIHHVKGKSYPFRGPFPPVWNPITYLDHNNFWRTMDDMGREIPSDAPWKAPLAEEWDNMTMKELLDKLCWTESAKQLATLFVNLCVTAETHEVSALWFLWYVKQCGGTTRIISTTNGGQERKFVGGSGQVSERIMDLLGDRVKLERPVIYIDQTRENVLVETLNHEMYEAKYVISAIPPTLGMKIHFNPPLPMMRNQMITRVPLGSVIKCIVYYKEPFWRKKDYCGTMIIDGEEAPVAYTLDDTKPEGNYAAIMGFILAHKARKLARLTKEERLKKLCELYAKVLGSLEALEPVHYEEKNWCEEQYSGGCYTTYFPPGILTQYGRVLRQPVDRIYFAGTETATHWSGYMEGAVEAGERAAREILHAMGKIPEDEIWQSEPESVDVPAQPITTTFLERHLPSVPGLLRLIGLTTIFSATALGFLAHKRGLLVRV
Procedure: as §3

[4] = biological target: T4, β-amyloid (Aβ)1–40 self-aggregation (Homo sapiens, UniProt P05067); test: Inhibition of self-induced Aβ40 aggregation, thioflavin T fluorescence; type: biochemical; details: Aβ40 30 μM, 2% HFIP, ThT, mean ± SD (n = 3); for IC50: PBS pH 7.4, 2 h
T4 construct: self-aggregation of Aβ peptides 1–40 (Aβ40)
Procedure: Molecules able to inhibit simultaneously AChE and β-amyloid (Aβ) aggregation/neurotoxicity may have potential as drugs for the treatment of AD [14]. Herein, the new DHPPIQ derivatives were evaluated for the inhibitory effects on the self-aggregation of Aβ peptides 1–40 (Aβ40), through a test based on the measurement of thioflavin T (ThT) fluorescence. Quercetin, which is a strong inhibitor of in vitro Aβ self-aggregation, was used as a positive control.
Each compound was initially tested at a 100-μM concentration. […] […].
According to an already reported 96-well plate procedure, the test compounds at 100 μM were incubated with Aβ40 (30 μM) and 2% HFIP (1,1,1,3,3,3-hexafluoro-2-propanol), used as aggregation enhancer in PBS pH 7.4 for 2 h at room temperature. After the addition of ThT, the fluorescence was read at the 440/485 nm excitation/emission wavelength. Experiments were performed in triplicate, and the % inhibition values calculated as mean ± SD.

[5] = system: A549 (lung adenocarcinoma) cells; test: Cytotoxicity, MTT assay, A549 cells; type: cell-based; details: Homo sapiens, read-out: IC50, 50% inhibition of the cell population growth, 72 h, mean ± SD
Procedure: as §1, §2

[6] = biological target: human acetylcholinesterase (AChE) (Homo sapiens, UniProt P22303); test: biochemical; details: for IC50: human recombinant AChE, pH 8.0, mean ± SD (n = 3), read-out: IC50 hAChE
Procedure: as §4

[7] = system: K562 (chronic myelogenous leukemia) cells; test: Cytotoxicity, Alamar Blue (resazurin) assay, K562 cells; type: cell-based; details: Homo sapiens, read-out: IC50, 50% inhibition of the cell population growth, 72 h, mean ± SD
Procedure: as §1, §2

[8] = system: HCT116 (intestinal carcinoma) cells; test: Cytotoxicity, MTT assay, HCT116 cells; type: cell-based; details: Homo sapiens, HCT-116, read-out: IC50, 50% inhibition of the cell population growth, 72 h, mean ± SD
Procedure: as §1, §2

[9] = system: A549 (lung adenocarcinoma) cells; parameters: method as in doi:10.1055/s-0036-1588486; details: read-out: IC50, 50% inhibition of the cell population growth, A549, data taken from ref [3]; cited from earlier work
[10] = system: HeLa (adenocarcinoma of the cervix uterus) cells; parameters: method as in doi:10.1055/s-0036-1588486; details: read-out: IC50, 50% inhibition of the cell population growth, HeLa, data taken from ref [3]; cited from earlier work
[11] = system: HCT116 (intestinal carcinoma) cells; parameters: method as in doi:10.1055/s-0036-1588486; details: read-out: IC50, 50% inhibition of the cell population growth, HCT116, data taken from ref [3]; cited from earlier work
[12] = system: RD (rhabdomyosarcoma) cells; parameters: method as in doi:10.1055/s-0036-1588486; details: read-out: IC50, 50% inhibition of the cell population growth, RD, data taken from ref [3]; cited from earlier work

T4 sequence (P05067 672-711 limits assumed): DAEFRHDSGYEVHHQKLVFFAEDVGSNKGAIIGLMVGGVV
T2 sequence (P06276 29-602): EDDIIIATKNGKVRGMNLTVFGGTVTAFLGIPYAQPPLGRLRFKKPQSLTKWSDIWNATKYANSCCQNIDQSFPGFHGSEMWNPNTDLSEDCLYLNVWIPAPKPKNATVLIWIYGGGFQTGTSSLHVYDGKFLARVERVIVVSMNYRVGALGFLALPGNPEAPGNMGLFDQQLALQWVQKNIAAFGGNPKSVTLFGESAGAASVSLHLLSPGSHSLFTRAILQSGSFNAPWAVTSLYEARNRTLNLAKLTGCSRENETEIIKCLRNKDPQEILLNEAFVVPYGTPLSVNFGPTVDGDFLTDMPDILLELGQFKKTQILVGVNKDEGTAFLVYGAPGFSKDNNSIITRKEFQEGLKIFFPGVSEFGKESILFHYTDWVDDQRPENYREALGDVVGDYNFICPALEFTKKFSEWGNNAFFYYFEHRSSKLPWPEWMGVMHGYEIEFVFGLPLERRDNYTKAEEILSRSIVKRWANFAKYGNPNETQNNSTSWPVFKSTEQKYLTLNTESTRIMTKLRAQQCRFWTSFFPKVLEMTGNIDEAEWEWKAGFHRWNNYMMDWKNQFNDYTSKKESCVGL
human acetylcholinesterase (AChE), sequence (P22303 32-614): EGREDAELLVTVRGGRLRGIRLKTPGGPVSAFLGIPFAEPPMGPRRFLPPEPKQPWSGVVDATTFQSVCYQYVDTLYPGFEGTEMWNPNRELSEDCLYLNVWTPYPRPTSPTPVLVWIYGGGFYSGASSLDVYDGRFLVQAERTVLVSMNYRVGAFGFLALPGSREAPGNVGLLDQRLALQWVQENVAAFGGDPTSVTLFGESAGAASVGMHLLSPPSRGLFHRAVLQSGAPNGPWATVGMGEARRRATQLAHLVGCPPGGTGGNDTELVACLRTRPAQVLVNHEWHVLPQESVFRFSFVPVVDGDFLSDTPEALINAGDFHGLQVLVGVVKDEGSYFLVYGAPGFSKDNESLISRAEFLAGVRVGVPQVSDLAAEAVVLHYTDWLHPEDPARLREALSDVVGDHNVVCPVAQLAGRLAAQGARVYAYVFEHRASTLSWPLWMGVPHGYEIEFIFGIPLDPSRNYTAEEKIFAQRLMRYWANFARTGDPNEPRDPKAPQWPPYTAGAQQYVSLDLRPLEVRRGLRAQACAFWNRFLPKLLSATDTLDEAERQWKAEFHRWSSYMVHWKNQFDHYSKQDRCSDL

| Compound | IC50 [1] | IC50 at 72 h (in vitro) | IC50 [2] | IC50 [5] | IC50 [8] | melting point | other results |
| --- | --- | --- | --- | --- | --- | --- | --- |
| COc1ccc(/N=C/c2cn3c(c2-c2ccc(Cl)cc2)-c2cc(OC)c(OC)cc2CC3)cc1 [Compound 9, (E)-1-(1-(4-chlorophenyl)-8,9-dimethoxy-5,6-dihydropyrrolo[2,1-a]isoquinolin-2-yl)-N-(4-methoxyphenyl)methanimine] | 35.2 ± 0.7 µM | 22.1 ± 0.8 µM | 76.4 ± 4.7 µM | 99.4 ± 1.1 µM | 37.2 ± 2.4 µM | – | inhibition at 10 µM (human MAO A; at 10 μM, mean ± SD (n = 3)): 39 ± 2%; inhibition at 10 µM ([3]; read-out: % inhibition hBChE): 13 ± 4%; inhibition at 10 µM (human MAO B): 29 ± 5%; IC50 [4]: 46 ± 5 µM; IC50 [6]: 29.3 ± 2.3 µM; IC50 [7]: 105 ± 8 µM |
| CCOc1ccc(-c2c(/C=N/N=C/c3cn4c(c3-c3ccc(OCC)c(OCC)c3)-c3cc(OCC)c(OCC)cc3CC4)cn3c2-c2cc(OCC)c(OCC)cc2CC3)cc1OCC [Compound 18, (1E,2E)-1,2-bis((1-[3,4-diethoxyphenyl]-8,9-diethoxy-5,6-dihydropyrrolo[2,1-a]isoquinolin-2-yl)methylene)hydrazine] | 302 ± 23 µM | – | – | – | > 500 µM | 230 to 232 °C | – |
| CCOc1ccc(-c2c(/C=N/c3ccc(OC)cc3)c(-c3ccccc3)n3c2-c2cc(OCC)c(OCC)cc2CC3)cc1OCC [Compound 8, (E)-1-(1-(3,4-diethoxyphenyl)-8,9-diethoxy-3-phenyl-5,6-dihydropyrrolo[2,1-a]isoquinolin-2-yl)-N-(4-methoxyphenyl)methanimine] | 304 ± 10 µM | – | 412 ± 20 µM | – | 286 ± 5 µM | 93 to 95 °C | – |
| COc1ccc(/N=C/c2c(-c3ccc(F)cc3)c3n(c2-c2ccccc2)CCc2cc(OC)c(OC)cc2-3)cc1 [Compound 12, (E)-1-(1-(4-fluorophenyl)-8,9-dimethoxy-3-phenyl-5,6-dihydropyrrolo[2,1-a]isoquinolin-2-yl)-N-(4-methoxyphenyl)methanimine] | 450 ± 19 µM | – | > 500 µM | > 500 µM | 148 ± 14 µM | 195 to 197 °C | – |
| CCOc1ccc(-c2c(C=O)cn3c2-c2cc(OCC)c(OCC)cc2CC3)cc1OCC [Compound 1] | – | – | – | – | – | – | IC50 [9]: 19.7 ± 0.3 µM; IC50 [10]: 44.5 ± 2 µM; IC50 [11]: 11.8 ± 0.1 µM; IC50 [12]: 21.3 ± 1.2 µM |
| CCOc1ccc(-c2c(CN(C)CCNC)cn3c2-c2cc(OCC)c(OCC)cc2CC3)cc1OCC.O=C(O)/C=C/C(=O)O [Compound 17a, 2-(([1-(3,4-diethoxyphenyl]-8,9-diethoxy-5,6-dihydropyrrolo[2,1-a]isoquinolin-2-yl)methyl)(methyl)amino)-N-methylethan-1-aminium (E)-3-carboxyacrylate] | 29.7 ± 0.9 µM | 17.9 ± 0.1 µM | 10.1 ± 0.1 µM | 35.9 ± 2.4 µM | 18.6 ± 0.4 µM | – | inhibition at 10 µM (human MAO A): 38 ± 5%; % inhibition hBChE [3]: n.i.; IC50 (human MAO B): 14.3 ± 1.4 µM; inhibition at 100 µM ([4]; at 100 μM): 31 ± 3%; inhibition mechanism on hAChE ([6]; Michaelis-Menten / Lineweaver-Burk plots): noncompetitive/mixed-type inhibition mechanism; Ki ([6]; complete kinetics, human AChE, read-out: inhibition constant (Ki) hAChE): 13.6 ± 0.1 µM; IC50 [6]: 16 µM and 16.4 µM; IC50 [7]: 46.6 ± 1.5 µM |
| COc1ccc(/N=C/c2cn3c(c2-c2ccc(F)cc2)-c2cc(OC)c(OC)cc2CC3)cc1 [Compound 11, (E)-1-(1-(4-fluorophenyl)-8,9-dimethoxy-5,6-dihydropyrrolo[2,1-a]isoquinolin-2-yl)-N-(4-methoxyphenyl)methanimine] | 87.2 ± 1.1 µM | 56.1 ± 2.4 µM | 145 ± 1 µM | 153 ± 2.2 µM | 114 ± 4 µM | – | IC50 (human MAO A; human recombinant MAO A, kynuramine, mean ± SD (n = 3), read-out: IC50 hMAO A): 18.1 ± 1.2 µM; % inhibition hBChE [3]: n.i.; inhibition at 10 µM (human MAO B): 22 ± 4%; IC50 [4]: 54 ± 2.2 µM; inhibition at 10 µM ([6]; at 10 μM, mean ± SD (n = 3), read-out: % inhibition hAChE): 40 ± 2% |
| CCOc1ccc(-c2c(C=O)c(-c3ccccc3)n3c2-c2cc(OCC)c(OCC)cc2CC3)cc1OCC [Compound 2] | – | – | – | – | – | – | IC50 [9]: 229 ± 21 µM; IC50 [11]: 183 ± 0.1 µM; IC50 [12]: 365 ± 23 µM |
